pIC50: −log10 of the molar value. Bounds are passed on as bounds.

The values that follow come from patent US5527796A, “Thienothiazine derivatives and their use” (Chemisch Pharmazeutische Forschungsgesellschaft m.b.H., priority 1992, dated 1996).

For one assay, the target named is T1, 5-lipoxygenase (Rattus norvegicus, UniProt P12527).
T1 construct: neutrophils harvested by aspiration; endogenous in cells; host or cells: peritoneal neutrophils of male Sprague Dawley rats, harvested 16 h after intraperitoneal carrageenan
T1 sequence (P12527 1-673): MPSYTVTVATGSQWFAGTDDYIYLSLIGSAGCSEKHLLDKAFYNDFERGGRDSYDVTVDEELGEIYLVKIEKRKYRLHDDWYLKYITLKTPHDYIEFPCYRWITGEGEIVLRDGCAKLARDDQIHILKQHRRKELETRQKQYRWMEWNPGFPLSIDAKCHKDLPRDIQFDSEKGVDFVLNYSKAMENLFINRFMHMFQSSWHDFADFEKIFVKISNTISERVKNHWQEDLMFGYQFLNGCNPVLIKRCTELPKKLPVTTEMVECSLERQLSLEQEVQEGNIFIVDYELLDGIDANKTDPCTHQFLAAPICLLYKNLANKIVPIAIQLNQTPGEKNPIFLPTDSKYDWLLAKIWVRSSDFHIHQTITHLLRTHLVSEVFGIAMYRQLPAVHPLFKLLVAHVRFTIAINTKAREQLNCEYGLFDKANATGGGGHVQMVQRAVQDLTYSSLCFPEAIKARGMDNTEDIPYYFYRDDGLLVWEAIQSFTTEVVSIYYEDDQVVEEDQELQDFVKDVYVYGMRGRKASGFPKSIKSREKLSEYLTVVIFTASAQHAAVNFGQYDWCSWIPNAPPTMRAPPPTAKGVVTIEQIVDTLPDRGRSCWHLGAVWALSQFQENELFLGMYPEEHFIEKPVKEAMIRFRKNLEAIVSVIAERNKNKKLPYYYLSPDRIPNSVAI
In words: formation of LTB4 by neutrophils as a measure for 5-lipoxygenase activity (A23187-stimulated, RIA). Type of assay: cell-based, Male Sprague Dawley rats. The conditions noted are these: A23187 2 μmol/l, 5 min at 37° C. The protocol: (§1) The formation of PGD2 by neutrophils was used as a measure for cyclooxygenase activity and the formation of LTB4 was used as a measure for 5-lipoxygenase activity.
(§2) Male Sprague Dawley rats (250-300 g) were injected with lambda carrageenan 1 mg intraperitoneally (dissolved in 0.5 ml dest.water) per animal. After 16 hours the rats were killed by exposure to diethylether. 15 ml ice cold Hanks balanced salt solution were injected i.p., neutrophils harvested by aspiration (10 ml), centrifuged (5 min, 100 g, 4° C.), the supernatant decanted and cells resuspended in HBSS at 4° C. to 5×10^6 cells/mi. 400 μl cell suspension (2×10^6 cells), 0.5 μl drugs dissolved in DMSO and 49.5 μl HBSS were incubated for 5 min at 37° C. Then 50 μl A23187 (2 μmol/l final conc.) were added followed by 5 min incubation at 37° C. The reaction was stopped by centrifugation for 30 s at 10000 g and the supernatant transferred to precooled plastic tubes and kept in an ice bath for max. 1 hour before starting RIA. PGD2 and LTB4 in the samples were measured after appropriate dilution with HBSS using commercial RIA kits.
(§3) Using the above mentioned methods the new compounds were tested. The inhibition of cyclooxygenase and of 5-lipoxygenase was measured.

The subject of another assay is cyclooxygenase. In words: formation of PGD2 by neutrophils as a measure for cyclooxygenase activity (A23187-stimulated, RIA). Type of assay: cell-based, Male Sprague Dawley rats. The following applies: for pIC50: rat neutrophils, A23187 2 μmol/l, 5 min at 37° C., RIA of PGD2. The protocol:
as §1, §2, §3

Broadly, the pIC50 is −log10 of the IC50, conventionally taken in molar units. Lower therefore signals a high IC50. Consider `CN1C(C(=O)Nc2cccc(COc3ccccc3)n2)=C(O)c2sc(Cl)cc2S1(=O)=O` [Example 11], for which the pIC50 against 5-lipoxygenase was 5.14; in the assay on cyclooxygenase, 6.92.

`CN1C(C(=O)Nc2cccc(CCc3ccccc3)n2)=C(O)c2sc(Cl)cc2S1(=O)=O` [Example 4, 6-Chloro-4-hydroxy-2-methyl-N-[6-(2-phenylethyl)-2-pyridyl]-2H-thieno[2,3-e]-1,2-thiazine-3-carboxamide-1,1-dioxide]: the pIC50 on 5-lipoxygenase is 5.57; in the assay on cyclooxygenase, 6.72.

Take `CN1C(C(=O)Nc2cccc(OCc3ccccc3)n2)=C(O)c2sc(Cl)cc2S1(=O)=O` [Example 13, 6-Chloro-4-hydroxy-2-methyl-N-[6-phenylmethoxy]-2-pyridyl-2H-thieno[2,3-e]-1,2-thiazin-3-carbox-amide-1,1,-dioxide]: the pIC50 against 5-lipoxygenase is 5.29; with cyclooxygenase it was 6.82.

Take `CN1C(C(=O)Nc2ccccn2)=C(O)c2sc(Cl)cc2S1(=O)=O` [Compound A, 6-chloro-4-hydroxy-2-methylo-N-(2-pyridyl)-2h-thieno[2,3-e]-1,2-thiazine-3-carboxamide-1,1-dioxide, reference compound]: the pIC50 against 5-lipoxygenase was less than 5.00; with cyclooxygenase it was 7.70. Further, the “inhibition of cyclooxygenase (in words)” value in the assay on cyclooxygenase (PGD2 formation) was “inhibited only cyclooxygenase”.

Consider `CN1C(C(=O)Nc2cccc(-c3cc4ccccc4o3)n2)=C(O)c2sc(Cl)cc2S1(=O)=O` [Example 12, 6-Chloro-4-hydroxy-2-methyl-N-[6-(2-benzo(b)furyl)]-2-pyridyl-2H-thieno[2,3-e]-1,2-thiazin-3-carbox-amide-1,1,-diol], for which the pIC50 against 5-lipoxygenase was 5.70; in the assay with cyclooxygenase, 7.80.

For `CN1C(C(=O)Nc2cccc(OCc3cc4ccccc4s3)n2)=C(O)c2sc(Cl)cc2S1(=O)=O` [Example 20], the negative-log IC50 (pIC50) against 5-lipoxygenase was 5.49; in the assay with cyclooxygenase it was 6.46.

For the molecule `CN1C(C(=O)Nc2cccc(COc3ccc(F)cc3)n2)=C(O)c2sc(Cl)cc2S1(=O)=O` [Example 10, 6-Chloro-4-hydroxy-2-methyl-N-[6-(4-fluorphenoxy-methyl)]-2-pyridyl-2H-thieno[2,3-e]-1,2-thiazin-3-carboxamide-1,1,-dioxide], the figures for the pIC50 against 5-lipoxygenase and in the assay on cyclooxygenase were 5.32 and 6.35, respectively.

On to `CN1C(C(=O)Nc2cccc(CCCCc3ccccc3)n2)=C(O)c2sc(Cl)cc2S1(=O)=O` [Example 9, 6-Chloro-4-hydroxy-2-methyl-N-[6-(4-phenylbutyl)]-2-pyridyl-2H-thieno[2,3-e]-1,2-thiazin-3-carbox-amide-1,1,-dioxide], for which the pIC50 on 5-lipoxygenase is 5.72; in the assay with cyclooxygenase, 6.12.

For the molecule `CN1C(C(=O)Nc2cccc(CCCc3ccccc3)n2)=C(O)c2sc(Cl)cc2S1(=O)=O` [Example 8, 6-Chloro-4-hydroxy-2-methyl-N-[6-(3-phenylpropyl)]-2-pyridyl-2H-thieno[2,3-e]-1,2-thiazin-3-carbox-amide-1,1,-dioxide], the pIC50 on 5-lipoxygenase was 5.38; in the assay on cyclooxygenase, 6.29.

On to `CN1C(C(=O)Nc2cccc(/C=C/c3ccccc3)n2)=C(O)c2sc(Cl)cc2S1(=O)=O` [Example 14, 6-Chloro-4-hydroxy-2-methyl-N-[6-((E)-2-phenylethenyl)]-2-pyridyl-2H-thieno[2,3-e]-1,2-thiazin-3-carbox-amide-1,1,-dioxide], for which the pIC50 against 5-lipoxygenase is 5.37; with cyclooxygenase it was 6.74.

As for `CN1C(C(=O)Nc2cccc(OCc3ccc4ccccc4n3)n2)=C(O)c2sc(Cl)cc2S1(=O)=O` [Example 17, 6-Chloro-4-hydroxy-2-methyl-N-[6-quinalinylmethoxy]-2-pyridyl-2H-thieno[2,3-e]-1,2-thiazin-3-carbox-amide-1,1,-dioxide], the negative-log IC50 (pIC50) against 5-lipoxygenase is 5.70; in the assay on cyclooxygenase, 6.18.

Turning to `CN1C(C(=O)Nc2cccc(C#Cc3ccccc3)n2)=C(O)c2sc(Cl)cc2S1(=O)=O` [Example 7, 6-Chloro-4-hydroxy-2-methyl-N-[6-phenylethinyl]-2-pyridyl-2H-thieno[2,3-e]-1,2-thiazin-3-carbox-amide-1,1,-dioxide], the pIC50 against 5-lipoxygenase is 5.43; with cyclooxygenase it was 6.39.
